Source: article PMC7717570, “Deciphering the enzymatic target of a new family of antischistosomal agents bearing a quinazoline scaffold using complementary computational tools” (Journal of Enzyme Inhibition and Medicinal Chemistry, 2020)
Values joined by “and” are separate entries in the source; they are usually repeats but may differ in a detail not shown here. Equal entries are not always repeated.

Tests used:
[1] = Microsomal stability, human liver microsomes (S9), Phase-I (CYP450-NADPH); type: in vitro ADME; conditions: CYP450-NADPH, 5 µM
Description: (§1) Mouse or human liver microsomes (S9), reduced nicotinamide adenine dinucleotide phosphate (NADPH) generating system solutions and uridine glucuronosyltransferase (UGT) reaction mix (BD Biosciences) were kept at −80 °C. The test compounds and reference compound diclofenac were formulated in DMSO at […]. The assay was carried out based on the BD Biosciences Guidelines for Use (TF000017 Rev1.0) with minor adaptations. The metabolic stability of the compounds was studied through the CYP450 superfamily (Phase-I metabolism) by fortification with NADPH and through UGT enzymes (Phase-II metabolism) by fortification with uridine diphosphate glucuronic acid (UDPGA). For CYP450 and other NADPH dependent enzymes, the compounds were incubated at 5 µM together with 0.5 mg/mL S9 in potassium phosphate buffer in a reaction started by the addition of 1 mM NADP. At defined time points, 20 µL was withdrawn from the reaction mixture and 80 µL cold acetonitrile (ACN) was added to inactivate the enzymes and precipitate the protein. The mixture was vortexed for 30 s and centrifuged at 4 °C for 5 min to collect the supernatant. For UGT enzymes, the compounds were incubated at 5 µM together with 0.5 mg/mL S9 in a reaction started by the addition of 2 mM UDPGA cofactor. The loss of parent compound was determined using liquid chromatography (UPLC) (Waters Aquity^TM) coupled with tandem quadrupole mass spectrometry (MS^2) (Waters Xevo^TM), equipped with an electrospray ionisation (ESI) interface and operated in multiple reaction monitoring (MRM) mode.

[2] = Microsomal stability, mouse liver microsomes (S9), Phase-I (CYP450-NADPH); type: in vitro ADME; conditions: CYP450-NADPH, 5 µM
Description: as §1

[3] = Microsomal stability, human liver microsomes (S9), Phase-II (UGT enzymes); type: in vitro ADME; conditions: UGT enzymes, 5 µM
Description: as §1

[4] = Microsomal stability, mouse liver microsomes (S9), Phase-II (UGT enzymes); type: in vitro ADME; conditions: UGT enzymes, 5 µM
Description: as §1

[5] = tested on: Schistosoma mansoni mature worms; assay: In vitro S. mansoni worm killing; conditions: Schistosoma mansoni, 120 h, day 5, initial test (Table 2), read-out: Worm killing (% of total)
Description: The percentage reduction of worm or egg burden in each treated group was calculated. […] Results are expressed as mean ± SEM. A two-tailed, unpaired Student’s t-test was used to detect the significance of difference between the means of different groups. […] Stock solutions of 5 mM PZQ and the quinazoline derivatives 2–13 were prepared in DMSO. Concentrations of 100 µM, 50 µM, 25 µM, 10 µM and 5 µM were freshly prepared on the day of experiment in RPMI-1640 medium. All compounds were initially tested at 100 and 50 µM; those showing worm killing were further tested at 25, 10 and 5 µM. Worms were obtained from SBSC of TBRI. Six to eight worms were placed in 12-well tissue culture plates and fresh RPMI-1640 medium (supplemented with glutamine, 20% newborn calf serum and streptomycin, penicillin, and gentamicin), containing the indicated concentration of the test compound was added[20]^,[21]. Worms were incubated overnight in a CO2 incubator at 37 °C. On the 2nd day, worms were examined by microscopy, washed three times with normal saline, fresh medium was added and the incubation was continued. On the 3rd day, worm motility was observed and on the 4th day, medium was changed again. On day 5 (end of the observation period), worms were microscopically examined for their motility and appearance. Each concentration was tested in duplicate, and the final recording of percent worm mortality was determined as the number of dead worms [contracted and opaque] divided by the total number of worms × 100. Negative controls used medium without additions or medium with 2% DMSO; positive control media containing identical concentrations of PZQ were tested in parallel.

[6] = tested on: Schistosoma mansoni worm couples; assay: S. mansoni ovipositing capacity and coupling; conditions: initial test (Table 2); for inhibition at 50 µM / inhibition at 100 µM: Schistosoma mansoni, 120 h, read-out: Reduction in number of eggs (%)
Description: Stock solutions of 5 mM PZQ and the quinazoline derivatives 2–13 were prepared in DMSO. Concentrations of 100 µM, 50 µM, 25 µM, 10 µM and 5 µM were freshly prepared on the day of experiment in RPMI-1640 medium. All compounds were initially tested at 100 and 50 µM; those showing worm killing were further tested at 25, 10 and 5 µM. 12-well tissue culture plates were used, each well containing 6–8 worms with at least one worm couple. Worms were incubated overnight in a CO2 incubator at 37 °C. Each concentration was tested in duplicate wells. On day 4, eggs were counted and discarded and the medium was changed. On day 5 (end of observation period) newly deposited eggs were counted. The final egg number is the total count of days 4 and 5 for each concentration tested and the final recording of the percentage of egg reduction was determined as [the total number of eggs on days 4 and 5 of control – the total number of eggs on days 4 and 5 of treated]/the total number of eggs on days 4 and 5 of control × 100.

Structure (SMILES): O=C(O)Cc1ccccc1Nc1c(Cl)cccc1Cl [Diclofenac, diclofenac, reference compound]
- % Parent compound remaining upon incubation ([1]; 0 min): 100%
- % Parent compound remaining upon incubation ([1]; 15 min): 27%
- % Parent compound remaining upon incubation ([1]; 30 min): 5%
- % Parent compound remaining upon incubation ([1]; 60 min): 1%
- % Parent compound remaining upon incubation ([2]; 0 min): 100%
- % Parent compound remaining upon incubation ([2]; 15 min): 87% and 61%
- % Parent compound remaining upon incubation ([2]; 60 min): 48% and 27%
- % Parent compound remaining upon incubation ([3]; 0 min): 100%
- % Parent compound remaining upon incubation ([3]; 15 min): 11%
- % Parent compound remaining upon incubation ([3]; 30 min): 9%
- % Parent compound remaining upon incubation ([3]; 60 min): 9%
- % Parent compound remaining upon incubation ([4]; 0 min): 100%
- % Parent compound remaining upon incubation ([4]; 15 min): 41% and 34%
- % Parent compound remaining upon incubation ([4]; 30 min): 44% and 32%
- % Parent compound remaining upon incubation ([4]; 60 min): 34% and 30%

Structure (SMILES): O=c1c2ccccc2n(Cc2ccc(C(F)(F)F)cc2)c(=O)n1Cc1ccc(F)cc1 [compound 2, 3-(4-Fluorobenzyl)-1-(4-(trifluoromethyl)benzyl)quinazolin-2,4(1H,3H)-dione]
- killing at 50 µM [5]: 0%
- killing at 100 µM [5]: 100%
- Uncoupling ([6]; 50 µM): No
- Uncoupling ([6]; 100 µM): Yes
- inhibition at 50 µM ([6]; 50 µM): 100%
- inhibition at 100 µM ([6]; 100 µM): 100%

Structure (SMILES): COc1ccc(Cn2c(=O)c3ccccc3n(Cc3ccc(C(F)(F)F)cc3)c2=O)cc1 [compound 3, 1-(4-(Trifluoromethyl)benzyl)3-(4-methoxybenzyl)quinazolin-2,4(1H,3H)-dione]
- killing at 50 µM [5]: 0%
- killing at 100 µM [5]: 75%
- Uncoupling ([6]; 50 µM): Yes
- Uncoupling ([6]; 100 µM): Yes
- inhibition at 50 µM ([6]; 50 µM): 100%
- inhibition at 100 µM ([6]; 100 µM): 100%

Structure (SMILES): O=c1c2cc(Br)ccc2n(Cc2ccc(C(F)(F)F)cc2)c(=O)n1Cc1ccc(F)cc1 [compound 4, 6-Bromo-3-(4-fluorobenzyl)-1-(4-(trifluoromethyl)benzyl)quinazolin-2,4(1H,3H)-dione]
- killing at 50 µM [5]: 13%
- killing at 100 µM [5]: 100%
- Uncoupling ([6]; 50 µM): Yes
- Uncoupling ([6]; 100 µM): Yes
- inhibition at 50 µM ([6]; 50 µM): 100%
- inhibition at 100 µM ([6]; 100 µM): 100%

Structure (SMILES): COc1ccc(Cn2c(=O)c3cc(Br)ccc3n(Cc3ccc(C(F)(F)F)cc3)c2=O)cc1 [compound 5, 6-Bromo-1-(4-(trifluoromethyl)benzyl)-3-(4-methoxybenzyl)quinazolin-2,4(1H,3H)-dione]
- killing at 50 µM [5]: 0%
- killing at 100 µM [5]: 100%
- Uncoupling ([6]; 50 µM): No
- Uncoupling ([6]; 100 µM): Yes
- inhibition at 50 µM ([6]; 50 µM): 31%
- inhibition at 100 µM ([6]; 100 µM): 100%

Structure (SMILES): O=c1c2ccc(Br)cc2n(Cc2ccc(C(F)(F)F)cc2)c(=O)n1Cc1ccc(F)cc1 [compound 6, 7-Bromo-3-(4-fluorobenzyl)-1-(4-(trifluoromethyl)benzyl)quinazolin-2,4(1H,3H)-dione]
- killing at 50 µM [5]: 0%
- killing at 100 µM [5]: 88%
- Uncoupling ([6]; 50 µM): Yes
- Uncoupling ([6]; 100 µM): Yes
- inhibition at 50 µM ([6]; 50 µM): 100%
- inhibition at 100 µM ([6]; 100 µM): 100%

Structure (SMILES): COc1ccc(Cn2c(=O)c3ccc(Br)cc3n(Cc3ccc(C(F)(F)F)cc3)c2=O)cc1 [compound 7, 7-Bromo-1-(4-(trifluoromethyl)benzyl)-3-(4-methoxybenzyl)quinazolin-2,4(1H,3H)-dione]
- killing at 50 µM [5]: 0%
- killing at 100 µM [5]: 0%
- Uncoupling ([6]; 50 µM): No
- Uncoupling ([6]; 100 µM): No
- inhibition at 50 µM ([6]; 50 µM): 35%
- inhibition at 100 µM ([6]; 100 µM): 50%

Structure (SMILES): O=c1c2cc(Cl)ccc2n(Cc2ccc(C(F)(F)F)cc2)c(=O)n1Cc1ccc(F)cc1 [compound 8, 6-Chloro-3-(4-fluorobenzyl)-1-(4-(trifluoromethyl)benzyl)quinazolin-2,4(1H,3H)-dione]
- killing at 50 µM [5]: 0%
- killing at 100 µM [5]: 100%
- Uncoupling ([6]; 50 µM): Yes
- Uncoupling ([6]; 100 µM): Yes
- inhibition at 50 µM ([6]; 50 µM): 100%
- inhibition at 100 µM ([6]; 100 µM): 100%

Structure (SMILES): COc1ccc(Cn2c(=O)c3cc(OC)c(OC)cc3n(Cc3ccc(C(F)(F)F)cc3)c2=O)cc1 [compound 11, 1-(4-(Trifluoromethyl)benzyl)-6,7-dimethoxy-3-(4-methoxybenzyl)quinazolin-2,4(1H,3H)-dione]
- killing at 50 µM [5]: 0%
- killing at 100 µM [5]: 86%
- Uncoupling ([6]; 50 µM): Yes
- Uncoupling ([6]; 100 µM): Yes
- inhibition at 50 µM ([6]; 50 µM): 100%
- inhibition at 100 µM ([6]; 100 µM): 100%

Structure (SMILES): Cc1cc(Br)c2c(c1)c(=O)n(Cc1ccc(F)cc1)c(=O)n2Cc1ccc(C(F)(F)F)cc1 [compound 12, 8-Bromo-3-(4-fluorobenzyl)-1-(4-(trifluoromethyl)benzyl)-6-methylquinazolin-2,4(1H,3H)-dione]
- killing at 50 µM [5]: 0%
- killing at 100 µM [5]: 0%
- Uncoupling ([6]; 50 µM): No
- Uncoupling ([6]; 100 µM): Yes
- inhibition at 50 µM ([6]; 50 µM): 50%
- inhibition at 100 µM ([6]; 100 µM): 100%

Structure (SMILES): COc1ccc(Cn2c(=O)c3cc(C)cc(Br)c3n(Cc3ccc(C(F)(F)F)cc3)c2=O)cc1 [compound 13, 8-Bromo-1-(4-(trifluoromethyl)benzyl)-3-(4-methoxybenzyl)-6-methylquinazolin-2,4(1H,3H)-dione]
- killing at 50 µM [5]: 0%
- killing at 100 µM [5]: 33%
- Uncoupling ([6]; 50 µM): Yes
- Uncoupling ([6]; 100 µM): Yes
- inhibition at 50 µM ([6]; 50 µM): 100%
- inhibition at 100 µM ([6]; 100 µM): 100%
